Assay results as given in US20130136766A1, “EFFECTIVE FRACTION FROM THE FRUITING BODIES OF GANODERMA LUCIDUM, EXTRACTION METHOD, USE AND PREPARATION THEREOF” (Shanghai University of Traditional Chinese Medicine, priority 2010, published 2013).

Test system: STZ-induced type 2 diabetic model rats
Assay: Drug potency on STZ-induced type 2 diabetic model rats (fasting blood glucose)
Assay type: in vivo
Procedure: The extract from Example 13 was trialed for its drug potency on STZ-induced type 2 diabetic model rats in Center for Drug Safety Evaluation, Shanghai University of Traditional Chinese Medicine.
FYGL was orally administered for various groups as: type 2 diabetes control group with saline 20 mL/kg; type 2 diabetes group with low dose of FYGL 50 mg/kg; type 2 diabetes group with high dose of FYGL 150 mg/kg; metformin group with metformin 200 mg/kg; rosiglitazone group with rosiglitazone 3 mg/kg. Numbers of rats in each group are 10.
The symbol # indicates significant difference of the fasting blood glucose level with p<0.05 and ## indicates very significant difference with p<0.01, referred to that of type 2 diabetes control group.

With CN(C)C(=N)N=C(N)N [Metformin, metformin] the fasting blood glucose (10 days, metformin 200 mg/kg) was 14 ± 4(#) mM, the fasting blood glucose (20 days, metformin 200 mg/kg) was 18 ± 5(#) mM and the fasting blood glucose (30 days, metformin 200 mg/kg) was 13 ± 2 (##) mM.

For CN(CCOc1ccc(CC2SC(=O)NC2=O)cc1)c1ccccn1 (stereo not drawn) [rosiglitazone], the fasting blood glucose (10 days, rosiglitazone 3 mg/kg) was 14 ± 5(#) mM, the fasting blood glucose (20 days, rosiglitazone 3 mg/kg) was 14 ± 4(#) mM and the fasting blood glucose (30 days, rosiglitazone 3 mg/kg) was 12 ± 3 (##) mM.
